Earlier results in US20180271924A1, “COMPOUND AND METHOD FOR REDUCING INFLAMMATION, PAIN, ALLERGY, FLU AND COLD SYMPTOMS” (priority 2018, published 2018).
Like-named read-outs stand apart in the source and are kept apart here.

Columns and labels:
delta opioid receptor = target: T1, delta opioid receptor (Rattus norvegicus, UniProt P33533); details: rat CNS membranes
T1 construct: membranes prepared from rat central nervous system; from tissue; host or cells: rat central nervous system membranes
T1 sequence (P33533 whole entry): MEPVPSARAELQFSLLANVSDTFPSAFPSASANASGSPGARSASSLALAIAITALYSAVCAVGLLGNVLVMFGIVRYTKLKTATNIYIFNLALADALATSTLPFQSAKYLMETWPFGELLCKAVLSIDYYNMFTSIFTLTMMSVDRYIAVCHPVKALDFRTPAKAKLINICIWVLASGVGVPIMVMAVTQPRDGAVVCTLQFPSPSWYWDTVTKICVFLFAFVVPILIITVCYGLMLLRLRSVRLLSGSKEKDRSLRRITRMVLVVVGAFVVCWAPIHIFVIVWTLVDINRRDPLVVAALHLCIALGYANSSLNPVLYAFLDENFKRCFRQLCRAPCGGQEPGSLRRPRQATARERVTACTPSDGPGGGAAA

ORL1-binding sites = ORL1-binding sites (Cavia porcellus, UniProt P47748)
ORL1-binding sites, sequence (P47748 whole entry): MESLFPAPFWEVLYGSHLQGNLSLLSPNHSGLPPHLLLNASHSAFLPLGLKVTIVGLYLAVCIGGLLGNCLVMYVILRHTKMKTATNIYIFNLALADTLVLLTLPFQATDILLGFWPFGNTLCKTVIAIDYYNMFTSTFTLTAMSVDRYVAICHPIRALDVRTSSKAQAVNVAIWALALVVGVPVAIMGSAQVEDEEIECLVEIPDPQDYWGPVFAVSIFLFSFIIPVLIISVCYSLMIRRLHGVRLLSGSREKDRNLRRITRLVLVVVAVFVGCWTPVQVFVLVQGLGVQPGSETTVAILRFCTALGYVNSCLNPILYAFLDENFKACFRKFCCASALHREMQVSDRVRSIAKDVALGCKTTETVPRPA

kappa receptors = target: T2, kappa receptors (Rattus norvegicus, UniProt P34975); details: rat CNS membranes
T2 construct: membranes prepared from rat central nervous system; from tissue; host or cells: rat central nervous system membranes
T2 sequence (P34975 whole entry): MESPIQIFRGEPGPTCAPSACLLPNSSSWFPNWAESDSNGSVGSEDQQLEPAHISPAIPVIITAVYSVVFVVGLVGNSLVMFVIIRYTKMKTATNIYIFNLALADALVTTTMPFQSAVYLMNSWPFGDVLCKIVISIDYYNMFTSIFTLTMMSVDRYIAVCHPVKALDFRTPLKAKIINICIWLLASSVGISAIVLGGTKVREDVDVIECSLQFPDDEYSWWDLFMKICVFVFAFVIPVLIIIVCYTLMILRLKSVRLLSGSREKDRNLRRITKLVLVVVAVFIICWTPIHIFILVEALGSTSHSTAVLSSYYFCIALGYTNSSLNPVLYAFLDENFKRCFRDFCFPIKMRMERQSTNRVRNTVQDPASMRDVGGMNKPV

ORL1 receptors = target: T3, ORL1 receptors (Cavia porcellus, UniProt P47748); details: guinea pig small intestine
T3 construct: functional ORL1 receptors in the guinea pig small intestine; from tissue; host or cells: guinea pig small intestine
T3 sequence (P47748 whole entry): as the sequence (P47748 whole entry) above

[1] = system: mu-, delta- and kappa-opioid binding sites
mu-opioid binding sites = details: corresponds to K value
mu receptors = target: T4, mu receptors (Rattus norvegicus, UniProt P33535); details: rat CNS membranes
T4 construct: membranes prepared from rat central nervous system; from tissue; host or cells: rat central nervous system membranes
T4 sequence (P33535 whole entry): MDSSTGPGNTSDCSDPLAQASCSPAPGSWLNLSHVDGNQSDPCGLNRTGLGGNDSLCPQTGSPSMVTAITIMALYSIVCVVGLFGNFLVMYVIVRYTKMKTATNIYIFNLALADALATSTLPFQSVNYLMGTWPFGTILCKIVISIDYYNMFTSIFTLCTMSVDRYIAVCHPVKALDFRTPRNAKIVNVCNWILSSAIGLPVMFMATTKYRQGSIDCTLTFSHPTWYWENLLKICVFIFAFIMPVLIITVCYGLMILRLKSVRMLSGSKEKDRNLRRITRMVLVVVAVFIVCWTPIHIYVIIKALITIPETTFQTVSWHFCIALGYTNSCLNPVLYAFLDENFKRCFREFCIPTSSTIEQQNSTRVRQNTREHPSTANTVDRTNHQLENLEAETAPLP

## C/C=C1/CN2CC[C@@]34c5cc(O)ccc5N(C)[C@]35OC[C@@]4(C(=O)OC)[C@H]1C[C@H]25 [akuammine]
other
  solubility in water: slightly soluble in water
Delta opioid receptor
  affinity for delta opioid receptor relative to kappa and mu: ten times lower
ORL1-binding sites
  affinity for ORL1-binding sites (words): neither akuammine nor any of the other alkaloids showed appreciable affinity
ORL1-binding sites; listed as Akuammine
  affinity for ORL1-binding sites (words): little affinity
Kappa receptors
  affinity for kappa receptors: micromolecular affinities
ORL1 receptors
  antagonism of nociceptin at functional ORL1 receptors: does not antagonize nociceptin
[1]
  opioid binding (words): low affinity
mu-opioid binding sites
  affinity: 2.1 mM⁻¹
Mu receptors
  affinity for mu receptors: micromolecular affinities
Opioid receptors
  character at opioid receptors: opioid antagonist
